In brackets after ≈: the same amount, converted by molar mass.
Tests used:
[1] = tested on: Staphyiococcus aureus CMCC 25923; experiment: Antibacterial MIC, serial dilution; type: cell-based, Staphylococcus aureus; conditions: Staphylococcus aureus, CMCC25923; S. aureus CMCC 25923, 24 h, 37 °C; read-out: MIC
Procedure: (§1) Test bacteria were grown to mid-log phase in Mueller–Hinton broth (MHB) or Tryptone Soya Broth (TSB) and diluted 1000-fold in the same medium. Bacteria (10^5 CFU/mL) were inoculated into MHB or TSB and dispensed at 0.2 ml/well into a 96-well microtiter plate. As positive controls, gatifloxacin, moxifloxacin, norfloxacin, oxacillin, and penicillin were used. […] Bacterial growth was determined by measuring the absorption at 630 nm using a microplate reader. All experiments were carried out three times.
(§2) The evaluation of antibacterial activity of all compounds (3a–3j and 6a–6k) was performed by a serial dilution method to determine the MIC against a panel of pathogens comprising five Gram-positive strains (S. aureus (CMCC(B) 26003 and CMCC 25923), Streptococcus mutans BNCC 336931, Enterococcus faecalis CMCC 29212, and Bacillus subtilis CMCC 63501), four Gram-negative strains (E. coli (CMCC 25922 and CMCC 44568) and P. aeruginosa (CMCC 27853 and CMCC 10104)), as well as three methicillin-resistant clinical isolates (S. aureus ATCC 43300 and ATCC 33591, P. aeruginosa ATCC BAA-2111). The results are described in Tables 1 and 2. Gatifloxacin, moxifloxacin, norfloxacin, oxacillin, and penicillin were used as positive controls.

L02 = experiment: Cytotoxicity, CCK-8 assay, normal cell line; type: cell-based; conditions: L02 normal human hepatocytes, 48 h
Procedure: (§3) A lung cancer cell line (A549), gastric cancer cell line (SGC7901) and human hepatocytes (L02) were used to test the anticancer activity and cytotoxicity of the new compounds. 5-Fluorouracil (5-FU) was used as the positive control against cancer cell lines. The A549, SGC7901 and L02 cells were grown in Dulbecco’s modified Eagle’s medium (DMEM) supplemented with 10% foetal bovine serum (FBS) and antibiotics (100 U/mL penicillin-streptomycin). Cells at 80–90% confluence were split by trypsin (0.25% in PBS; pH 7.4), and the medium was changed at 24 h intervals. The cells were cultured at 37 °C in a 5% CO2 incubator. The cells were passaged three times, then approximately 1 × 10^4 cells were seeded into each well of a 96-well plate and allowed to incubate to allow attachment of the cells to the surface. After 24 h, the medium was replaced with DMEM supplemented with 10% FBS containing various concentrations (0.1, 0.3, 1, 3, 10, and 30 μg/mL) of test compounds. Each concentration was tested in triplicate. After 48 h treatment, 20 µL of CCK-8 solution was added to each well and the optical density measured at 450 nm after 3 h using a microplate reader. The IC50 values were defined as the concentrations inhibiting 50% of cell growth.

[2] = tested on: Staphylococcus aureus ATCC 43300; experiment: Antibacterial MIC, multidrug-resistant clinical isolate; type: cell-based; conditions: Staphylococcus aureus, ATCC43300; multidrug-resistant S. aureus ATCC 43300; read-out: MIC
Procedure: as §1, §2

[3] = tested on: Staphylococcus aureus ATCC 33591; experiment: as above; type: cell-based; conditions: Staphylococcus aureus, ATCC33591; multidrug-resistant S. aureus ATCC 33591; read-out: MIC
Procedure: as §1, §2

SGC7901 = experiment: Cytotoxicity, CCK-8 assay; type: cell-based; conditions: Homo sapiens, SGC-7901, SGC7901 gastric cancer cells, 48 h
Procedure: as §3

A549 = experiment: Cytotoxicity, CCK-8 assay; type: cell-based; conditions: Homo sapiens, A549 lung cancer cells, 48 h
Procedure: as §3

[4] = tested on: Pseudomonas aeruginosa CMCC 27853; experiment: Antibacterial MIC, serial dilution; type: cell-based; conditions: Pseudomonas aeruginosa, CMCC27853; P. aeruginosa CMCC 27853, 24 h, 37 °C; read-out: MIC
Procedure: as §1, §2

[5] = tested on: Streptococcus mutans BNCC 336931; experiment: Antibacterial MIC, serial dilution; type: cell-based; conditions: Streptococcus mutans, BNCC336931; S. mutans BNCC 336931, 24 h, 37 °C; read-out: MIC
Procedure: as §1, §2

[6] = tested on: Enterococcus faecalis CMCC 29212; experiment: Antibacterial MIC, serial dilution; type: cell-based; conditions: Enterococcus faecalis, CMCC29212; E. faecalis CMCC 29212, 24 h, 37 °C; read-out: MIC
Procedure: as §1, §2

[7] = tested on: Escherichia coli CMCC 25922; experiment: Antibacterial MIC, serial dilution; type: cell-based; conditions: Escherichia coli, CMCC25922; E. coli CMCC 25922, 24 h, 37 °C; read-out: MIC
Procedure: as §1, §2

[8] = tested on: Pseudomonas aeruginosa CMCC 10104; experiment: Antibacterial MIC, serial dilution; type: cell-based; conditions: Pseudomonas aeruginosa, CMCC10104; P. aeruginosa CMCC 10104, 24 h, 37 °C; read-out: MIC
Procedure: as §1, §2

[9] = tested on: Escherichia coli CMCC 44568; experiment: Antibacterial MIC, serial dilution; type: cell-based; conditions: Escherichia coli, CMCC44568; E. coli CMCC 44568, 24 h, 37 °C; read-out: MIC
Procedure: as §1, §2

[10] = tested on: Staphylococcus aureus CMCC(B)26003; experiment: Antibacterial MIC, serial dilution; type: cell-based; conditions: Staphylococcus aureus; S. aureus CMCC(B)26003, 24 h, 37 °C; read-out: MIC
Procedure: as §1, §2

[11] = tested on: Bacillus subtilis CMCC 63501; experiment: Antibacterial MIC, serial dilution; type: cell-based; conditions: Bacillus subtilis, CMCC63501; B. subtilis CMCC 63501, 24 h, 37 °C; read-out: MIC
Procedure: as §1, §2

tested bacterial strains = experiment: Antibacterial MIC, panel of tested bacterial strains; type: cell-based; conditions: against almost all of the tested strains
Procedure: as §1, §2

[12] = tested on: Pseudomonas aeruginosa ATCC BAA-2111; experiment: Antibacterial MIC, multidrug-resistant clinical isolate; type: cell-based; conditions: ATCCBAA2111, multidrug-resistant P. aeruginosa ATCC BAA-2111
Procedure: as §1, §2

| SMILES | MIC [1] [mg/L] | MIC [2] [mg/L] | MIC [3] [mg/L] | melting point [°C] | MIC [4] [mg/L] | MIC [5] [mg/L] | MIC [6] [mg/L] | MIC [7] [mg/L] | MIC [8] [mg/L] | MIC [9] [mg/L] | MIC [10] [mg/L] | MIC [11] [mg/L] | MIC [12] [mg/L] | IC50 (L02) [mg/L] | IC50 (SGC7901) [mg/L] | IC50 (A549) [mg/L] | MIC (tested bacterial strains) [mg/L] |
| --- | --- | --- | --- | --- | --- | --- | --- | --- | --- | --- | --- | --- | --- | --- | --- | --- | --- |
| N=C(N)NN=Cc1ccc(C#Cc2cccc(Br)c2)cc1 [Compound 3i, 2-(4-((3-Bromophenyl)ethynyl)benzylidene)hydrazine-1-carboximidamide] | 2 (≈ 5.86 µM) | 2 (≈ 5.86 µM) | 0.5 (≈ 1.47 µM) | 223 to 225 | > 128 | 1 (≈ 2.93 µM) | 1 (≈ 2.93 µM) | 2 (≈ 5.86 µM) | 2 (≈ 5.86 µM) | 2 (≈ 5.86 µM) | 1 (≈ 2.93 µM) | 1 (≈ 2.93 µM) | – | 19.6 (≈ 57.5 µM) | 1.26 (≈ 3.69 µM) | 4.03 (≈ 11.8 µM) | – |
| N=C(N)NN=Cc1ccc(C#Cc2cccc(Cl)c2)cc1 [Compound 3f, 2-(4-((3-Chlorophenyl)ethynyl)benzylidene)hydrazine-1-carboximidamide] | 1 (≈ 3.37 µM) | – | – | 213 to 214 | > 128 | 2 (≈ 6.74 µM) | 0.5 (≈ 1.68 µM) | 2 (≈ 6.74 µM) | 2 (≈ 6.74 µM) | 4 (≈ 13.5 µM) | 1 (≈ 3.37 µM) | 0.5 (≈ 1.68 µM) | – | 10.2 (≈ 34.5 µM) | 0.3 (≈ 1.01 µM) | 2.55 (≈ 8.59 µM) | – |
| N=C(N)NN=Cc1ccc(C#CC#Cc2ccc(F)cc2)cc1 [Compound 6d, 2-(4-((4-Fluorophenyl)buta-1,3-diyn-1-yl)benzylidene)hydrazine-1-carboximidamide] | 4 (≈ 13.1 µM) | – | – | 206 to 210 | > 128 | > 128 | 128 (≈ 421 µM) | > 128 | > 128 | > 128 | 64 (≈ 210 µM) | > 128 | – | – | – | – | ≥ 128 |
| N=C(N)NN=Cc1ccc(C#Cc2ccccc2Cl)cc1 [Compound 3e, 2-(4-((2-Chlorophenyl)ethynyl)benzylidene)hydrazine-1-carboximidamide] | 2 (≈ 6.74 µM) | 2 (≈ 6.74 µM) | 0.5 (≈ 1.68 µM) | 200 to 203 | > 128 | 2 (≈ 6.74 µM) | 0.5 (≈ 1.68 µM) | 2 (≈ 6.74 µM) | 4 (≈ 13.5 µM) | 8 (≈ 27 µM) | 0.5 (≈ 1.68 µM) | 1 (≈ 3.37 µM) | – | 12.4 (≈ 41.9 µM) | 0.45 (≈ 1.52 µM) | 4.57 (≈ 15.4 µM) | – |
| N=C(N)NN=Cc1ccc(C#CC#Cc2cccc(Br)c2)cc1 [Compound 6i, 2-(4-((3-Bromophenyl)buta-1,3-diyn-1-yl)benzylidene)hydrazine-1-carboximidamide] | 128 (≈ 350 µM) | – | – | 196 to 198 | > 128 | 0.5 (≈ 1.37 µM) | 0.5 (≈ 1.37 µM) | 64 (≈ 175 µM) | 128 (≈ 350 µM) | 128 (≈ 350 µM) | 2 (≈ 5.48 µM) | 2 (≈ 5.48 µM) | – | – | – | – | ≥ 128 |
| N=C(N)NN=Cc1ccc(C#CC#Cc2ccc(Cl)cc2)cc1 [Compound 6g, 2-(4-((4-Chlorophenyl)buta-1,3-diyn-1-yl)benzylidene)hydrazine-1-carboximidamide] | > 128 | – | – | 202 to 205 | > 128 | > 128 | 128 (≈ 399 µM) | 128 (≈ 399 µM) | > 128 | 128 (≈ 399 µM) | > 128 | > 128 | – | – | – | – | ≥ 128 |
| COc1c(N2CCNC(C)C2)c(F)cc2c(=O)c(C(=O)O)cn(C3CC3)c12 (stereo not drawn) [Gatifloxacin, reference compound] | 0.125 (≈ 0.333 µM) | 0.5 (≈ 1.33 µM) | 0.25 (≈ 0.666 µM) | – | 2 (≈ 5.33 µM) | 1 (≈ 2.66 µM) | 1 (≈ 2.66 µM) | 0.125 (≈ 0.333 µM) | 2 (≈ 5.33 µM) | 0.125 (≈ 0.333 µM) | 0.125 (≈ 0.333 µM) | 2 (≈ 5.33 µM) | 1 (≈ 2.66 µM) | – | – | – | – |

Continued, in another order:

| MIC [1] [mg/L] | MIC [2] [mg/L] | MIC [3] [mg/L] | melting point [°C] | MIC [4] [mg/L] | MIC [5] [mg/L] | MIC [6] [mg/L] | MIC [7] [mg/L] | MIC [8] [mg/L] | MIC [9] [mg/L] | MIC [10] [mg/L] | MIC [11] [mg/L] | MIC [12] [mg/L] | SMILES | IC50 (L02) [mg/L] | IC50 (SGC7901) [mg/L] | IC50 (A549) [mg/L] | MIC (tested bacterial strains) [mg/L] |
| --- | --- | --- | --- | --- | --- | --- | --- | --- | --- | --- | --- | --- | --- | --- | --- | --- | --- |
| 128 (≈ 399 µM) | 8 (≈ 24.9 µM) | 0.5 (≈ 1.56 µM) | 207 to 210 | > 128 | 1 (≈ 3.12 µM) | 0.5 (≈ 1.56 µM) | 8 (≈ 24.9 µM) | 4 (≈ 12.5 µM) | 64 (≈ 200 µM) | 0.25 (≈ 0.779 µM) | 4 (≈ 12.5 µM) | – | N=C(N)NN=Cc1ccc(C#CC#Cc2ccccc2Cl)cc1 [Compound 6e, 2-(4-((2-Chlorophenyl)buta-1,3-diyn-1-yl)benzylidene)hydrazine-1-carboximidamide] | 14.8 (≈ 46.1 µM) | 1.48 (≈ 4.61 µM) | 3.62 (≈ 11.3 µM) | – |
| > 128 | 4 (≈ 14 µM) | 0.5 (≈ 1.75 µM) | 209 to 212 | > 128 | 0.5 (≈ 1.75 µM) | 0.5 (≈ 1.75 µM) | 128 (≈ 447 µM) | 1 (≈ 3.49 µM) | 128 (≈ 447 µM) | 0.5 (≈ 1.75 µM) | 0.5 (≈ 1.75 µM) | > 64 | N=C(N)NN=Cc1ccc(C#CC#Cc2ccccc2)cc1 [Compound 6a, 2-(4-(Phenylbuta-1,3-diyn-1-yl)benzylidene)hydrazine-1-carboximidamide] | 13.4 (≈ 46.7 µM) | 1.63 (≈ 5.69 µM) | 2.49 (≈ 8.7 µM) | – |
| 1 (≈ 3.29 µM) | 8 (≈ 26.3 µM) | 1 (≈ 3.29 µM) | 218 to 220 | > 128 | 0.5 (≈ 1.64 µM) | 0.5 (≈ 1.64 µM) | 8 (≈ 26.3 µM) | 128 (≈ 421 µM) | 128 (≈ 421 µM) | 0.25 (≈ 0.821 µM) | 4 (≈ 13.1 µM) | – | N=C(N)NN=Cc1ccc(C#CC#Cc2ccccc2F)cc1 [Compound 6b, 2-(4-((2-Fluorophenyl)buta-1,3-diyn-1-yl)benzylidene)hydrazine-1-carboximidamide] | 18 (≈ 59.1 µM) | 1.37 (≈ 4.5 µM) | 2.22 (≈ 7.29 µM) | – |
| 32 (≈ 107 µM) | – | – | 202 to 204 | > 128 | 0.5 (≈ 1.66 µM) | 0.5 (≈ 1.66 µM) | 4 (≈ 13.3 µM) | 4 (≈ 13.3 µM) | 128 (≈ 426 µM) | 1 (≈ 3.33 µM) | 2 (≈ 6.66 µM) | – | Cc1cccc(C#CC#Cc2ccc(C=NNC(=N)N)cc2)c1 [Compound 6k, 2-(4-(m-Tolylbuta-1,3-diyn-1-yl)benzylidene)hydrazine-1-carboximidamide] | 14.8 (≈ 49.2 µM) | 0.55 (≈ 1.83 µM) | 3.58 (≈ 11.9 µM) | – |

Source: article PMC6968633, “Synthesis, antibacterial and anticancer activity, and docking study of aminoguanidines containing an alkynyl moiety” (Journal of Enzyme Inhibition and Medicinal Chemistry, 2019)
